Key:
[1] = system: human dermal fibroblasts; assay: Collagen contraction test (in vitro skin cell toxicity screening); type: cell-based; details: for IC50: Fibroblast, collagen sheets containing human dermal fibroblasts, read-out: IC50 (concentration at which shrinkage is 50% of the control); for toxicity (in words): compared with other azones
Description: Skin toxicity tests were performed using the so-called collagen contraction test (Ponec et al. Journal of Pharmaceutical Sciences Vol. 78, No. 9, September 1989 and Vol. 79, No. 4, April 1990). […] The concentration of the agent, at which the shrinkage is 50% of the control, is taken as the IC50, the "50% inhibition level".

[2] = sole anti-inflammatory agent, topical on human or animal skin, about 10 to 100%; cited from earlier work
[3] = Differential thermal analysis (DTA) of pretreated stratum corneum; parameters: species or system human; details: 24 h pretreatment in enhancer solution
Description: For differential thermal analysis human stratum corneum samples were pretreated (after prehydration) by submersion in the in test 1 described enhancer solutions for 24 hours, using untreated prehydrated stratum corneum samples as controls. Differential thermal analysis of ca. 20 mg samples was then performed on a differential scanning calorimeter (Maple).

[4] = Freeze-fracture electron microscopy of pretreated stratum corneum; details: 24 h pretreatment with solution in propylene glycol
Description: For freeze-fracture electron microscopy stratum corneum samples were pretreated during 24 hours with solutions of azacycloheptanones in propylene glycol by applying about 200 microliter per cm^2 of the solution on the apical surface. Samples were then snapfrozen in melting nitrogen (method according to Umrath, J. Microsc. 101: 103 (1974)), cross-fractured (Holman et al., J. Invest. Dermatol, 94: 332 (1990) )in a Balzers Freeze Fracture apparatus (Balzers 400 BAF) at high vacuum. The fracture surfaces were then shadowed with Pt and overcast with a layer of carbon. Upon thawing, the samples were cleaned to obtain the surface replicas. These were scooped up on copper grids and examined in a transmission electron microscope (Philips 401, operated at 80 kV).

[5] = Skin transport kinetics: nitroglycerin penetration through stratum corneum pretreated with 1-alkylazacycloheptan-2-ones; type: in vitro ADME, human; details: compared with other 1-alkylazacycloheptan-2-ones
Description: Human stratum corneum samples (18 mm in diameter) were obtained from fresh human skin (abdomen) by trypsinization. The stratum corneum samples were firstly prehydrated at 95% relative humidity (RH) over a saturated disodium hydrogen phosphate solution, then either submerged for 24 hours at 34° C. with 200 microliter of a 10% solution of an alkyl-aza-cycloheptan-one in propylene glycol by topical application, or directly used for a diffusion study.
The stratum corneum samples were subsequently sandwiched between silastic sheetings (127 micrometer thick silicone membranes, Dow Corning) which have been proven not to control the transport rate of the model drug used in the study, nitroglycerin. The thus obtained sandwiches were clamped in two-chamber flow-through diffusion cells and subjected to 24 hours diffusion experiments. The donor compartment having a volume of 16μl was flushed with a 0.05% nitroglycerin solution at a pumping rate of 35 ml/hr. […] Fractions of the acceptor fluid were collected at 1 hour intervals, and nitroglycerin was detected using a reversed phase HPLC procedure (chrom-sphere C18 100×30 mm column eluted at 22° C. (methanol:water=1:1) at a 1.1 ml/min flow rate (Spectroflow 400, Kratos.). The absorbance at 201 nm of the effluent was monitored on Waters 450 var. wavelength detector).

Row | SMILES | IC50 [1] [µM] | anti-inflammatory action, topical (in words) [2] | influence on gel-liquid transition temperature and transition enthalpy (in words) [3] | transition enthalpy of the intercellular lipids (gel-liquid transition) ([3]; control 7 J.g-1) [J/g] | electron microscopic findings in stratum corneum (in words) [4] | enhancement of nitroglycerin transport / percutaneous absorption (in words) [5] | enhancement of nitroglycerin transport / percutaneous absorption (in words) ([5]; listed as oleyl derivative) | toxicity (in words) ([1]; listed as 1-oleyl-azacyclo-heptan-2-one) | toxicity (in words) ([1]; listed as 1-oleylazacycloheptan-2-one) | toxicity (in words) ([1]; listed as oleyl azone)
1 | CCCCCCCCCCCCN1CCCCCC1=O [C12, 1-dodecylazacycloheptan-2-one, reference compound] | 240 | capable of temporarily reducing the signs and symptoms of inflammation | – | – | – | – | – | – | – | –
2 | CCCCCCCC/C=C\CCCCCCCCN1CCCCCC1=O [C18, 1-oleylazacycloheptan-2-one] | 800 | – | strongly influences both the gel-liquid transition temperature of the intercellular lipids, and the corresponding transition enthalpy | 3.3 | penetrates deeply into the stratum corneum and induces the separation of a non-lamellar phase | more potent enhancer for percutaneous absorption than the 1-alkylazacycloheptan-2-ones according to the prior art | by far the most potent enhancer with respect to nitroglycerin transport | moderately toxic | less toxic than the 1-dodecylazacycloheptan-2-one | almost the least toxic azone among the effective enhancers (from C10 up to C18), and less toxic than C12 azone

Reference: patent US6284754A, “Pharmaceutical compositions containing 1-oleylazacycloheptan-2-one as enhancing agent of transport across biological membranes” (Schwarz Pharma AG, priority 1992, dated 2001)
